Experimental data published in ChEMBL document CHEMBL1125139, “Antitumor agents. 113. New 4 beta-arylamino derivatives of 4'-O-demethylepipodophyllotoxin and related compounds as potent inhibitors of human DNA topoisomerase II” (1990).

System: Nucleic Acid
Assay: Inhibition of cellular protein-DNA complex formation at 10 uM
Type: functional
Settings: Homo sapiens

**Q.** For `COc1cc([C@@H]2c3cc4c(cc3[C@@H](Nc3ccc(Oc5ccccc5)cc3)[C@H]3COC(=O)[C@H]23)OCO4)cc(OC)c1O`, which Formation is on record?
**A.** 97%

**Q.** With `COc1cc([C@@H]2c3cc4c(cc3[C@@H](Nc3cccc(C(C)=O)c3)[C@H]3COC(=O)[C@H]23)OCO4)cc(OC)c1O` as the compound, how does the Formation read?
**A.** 150%

**Q.** For `COC(=O)c1cc(N[C@@H]2c3cc4c(cc3[C@@H](c3cc(OC)c(O)c(OC)c3)[C@H]3C(=O)OC[C@@H]32)OCO4)ccc1O`, which Formation is on record?
**A.** 83%

**Q.** With `COc1cc([C@@H]2c3cc4c(cc3[C@@H](Nc3ccc5c(c3)OCCO5)[C@H]3COC(=O)[C@H]23)OCO4)cc(OC)c1O` as the compound, how does the Formation read?
**A.** 279%

**Q.** With `COc1cc([C@@H]2c3cc4c(cc3[C@@H](Nc3ccc(F)cc3)[C@H]3COC(=O)[C@H]23)OCO4)cc(OC)c1O` as the compound, how does the Formation read?
**A.** 213%

**Q.** Which Formation does the source give for `COc1cc([C@@H]2c3cc4c(cc3[C@@H](Nc3cccc([N+](=O)[O-])c3)[C@H]3COC(=O)[C@H]23)OCO4)cc(OC)c1O` here?
**A.** 230%

**Q.** With `COc1cc([C@@H]2c3cc4c(cc3[C@@H](Oc3ccc(F)cc3)[C@H]3COC(=O)[C@H]23)OCO4)cc(OC)c1O` as the compound, how does the Formation read?
**A.** 57%

**Q.** For `CCOC(=O)c1ccc(N[C@@H]2c3cc4c(cc3[C@@H](c3cc(OC)c(O)c(OC)c3)[C@H]3C(=O)OC[C@@H]32)OCO4)cc1`, which Formation is on record?
**A.** 207%

**Q.** With `COc1cc([C@@H]2c3cc4c(cc3[C@@H](Nc3ccccn3)[C@H]3COC(=O)[C@H]23)OCO4)cc(OC)c1O` as the compound, how does the Formation read?
**A.** 97%

**Q.** Which Formation does the source give for `COC(=O)c1ccc(N[C@@H]2c3cc4c(cc3[C@@H](c3cc(OC)c(O)c(OC)c3)[C@H]3C(=O)OC[C@@H]32)OCO4)cc1O` here?
**A.** 129%

**Q.** With `COc1cc([C@@H]2c3cc4c(cc3[C@@H](Nc3ccc([N+](=O)[O-])cc3)[C@H]3COC(=O)[C@H]23)OCO4)cc(OC)c1O` as the compound, how does the Formation read?
**A.** 323%

**Q.** Which Formation does the source give for `COc1cc([C@@H]2c3cc4c(cc3[C@@H](Nc3cc(C(F)(F)F)cc(C(F)(F)F)c3)[C@H]3COC(=O)[C@H]23)OCO4)cc(OC)c1O` here?
**A.** 21%

**Q.** Which Formation does the source give for `COc1cc([C@@H]2c3cc4c(cc3[C@@H](Nc3ccccc3)[C@H]3COC(=O)[C@H]23)OCO4)cc(OC)c1O` here?
**A.** 243%

**Q.** With `COc1cc([C@@H]2c3cc4c(cc3[C@@H](Nc3cc(OC)c(OC)c(OC)c3)[C@H]3COC(=O)[C@H]23)OCO4)cc(OC)c1O` as the compound, how does the Formation read?
**A.** 47%

**Q.** For `COc1cc([C@@H]2c3cc4c(cc3[C@@H](Nc3cccc(O)c3)[C@H]3COC(=O)[C@H]23)OCO4)cc(OC)c1O`, which Formation is on record?
**A.** 290%

**Q.** With `CCOC(=O)c1ccccc1N[C@@H]1c2cc3c(cc2[C@@H](c2cc(OC)c(O)c(OC)c2)[C@H]2C(=O)OC[C@@H]21)OCO3` as the compound, how does the Formation read?
**A.** 4%

**Q.** For `COc1cc([C@@H]2c3cc4c(cc3[C@@H](Nc3ccc(C#N)cc3)[C@H]3COC(=O)[C@H]23)OCO4)cc(OC)c1O`, which Formation is on record?
**A.** 211%

**Q.** For `COc1cc([C@@H]2c3cc4c(cc3[C@@H](Nc3cccc(CO)c3)[C@H]3COC(=O)[C@H]23)OCO4)cc(OC)c1O`, which Formation is on record?
**A.** 235%

System: not listed separately
Assay: Concentration for 50% reduction in cell number after 3-day incubation
Type: functional
Settings: Homo sapiens, 72 h; read-out: ID50 (the source's name)

**Q.** Which IC50 does the source give for `COc1cc([C@@H]2c3cc4c(cc3[C@@H](Nc3ccc(Oc5ccccc5)cc3)[C@H]3COC(=O)[C@H]23)OCO4)cc(OC)c1O` here?
**A.** 1 µM

**Q.** With `COc1cc([C@@H]2c3cc4c(cc3[C@@H](Nc3cccc(C(C)=O)c3)[C@H]3COC(=O)[C@H]23)OCO4)cc(OC)c1O` as the compound, how does the IC50 read?
**A.** 1.7 µM

**Q.** Which IC50 does the source give for `COC(=O)c1cc(N[C@@H]2c3cc4c(cc3[C@@H](c3cc(OC)c(O)c(OC)c3)[C@H]3C(=O)OC[C@@H]32)OCO4)ccc1O` here?
**A.** 1 µM

**Q.** Which IC50 does the source give for `COc1cc([C@@H]2c3cc4c(cc3[C@@H](Nc3ccc5c(c3)OCCO5)[C@H]3COC(=O)[C@H]23)OCO4)cc(OC)c1O` here?
**A.** 0.68 µM

**Q.** Which IC50 does the source give for `COc1cc([C@@H]2c3cc4c(cc3[C@@H](Nc3ccc(F)cc3)[C@H]3COC(=O)[C@H]23)OCO4)cc(OC)c1O` here?
**A.** 0.24 µM

**Q.** For `COc1cc([C@@H]2c3cc4c(cc3[C@@H](Nc3cccc([N+](=O)[O-])c3)[C@H]3COC(=O)[C@H]23)OCO4)cc(OC)c1O`, which IC50 is on record?
**A.** 1 µM

**Q.** With `COc1cc([C@@H]2c3cc4c(cc3[C@@H](Oc3ccc(F)cc3)[C@H]3COC(=O)[C@H]23)OCO4)cc(OC)c1O` as the compound, how does the IC50 read?
**A.** 0.5 µM

**Q.** Which IC50 does the source give for `CCOC(=O)c1ccc(N[C@@H]2c3cc4c(cc3[C@@H](c3cc(OC)c(O)c(OC)c3)[C@H]3C(=O)OC[C@@H]32)OCO4)cc1` here?
**A.** 0.84 µM

**Q.** Which IC50 does the source give for `COc1cc([C@@H]2c3cc4c(cc3[C@@H](Nc3ccccn3)[C@H]3COC(=O)[C@H]23)OCO4)cc(OC)c1O` here?
**A.** 0.71 µM

**Q.** For `COC(=O)c1ccc(N[C@@H]2c3cc4c(cc3[C@@H](c3cc(OC)c(O)c(OC)c3)[C@H]3C(=O)OC[C@@H]32)OCO4)cc1O`, which IC50 is on record?
**A.** 5.8 µM

**Q.** For `COc1cc([C@@H]2c3cc4c(cc3[C@@H](Nc3ccc([N+](=O)[O-])cc3)[C@H]3COC(=O)[C@H]23)OCO4)cc(OC)c1O`, which IC50 is on record?
**A.** 0.49 µM

**Q.** For `COc1cc([C@@H]2c3cc4c(cc3[C@@H](Nc3cc(C(F)(F)F)cc(C(F)(F)F)c3)[C@H]3COC(=O)[C@H]23)OCO4)cc(OC)c1O`, which IC50 is on record?
**A.** 3.4 µM

**Q.** With `COc1cc([C@@H]2c3cc4c(cc3[C@@H](Nc3ccccc3)[C@H]3COC(=O)[C@H]23)OCO4)cc(OC)c1O` as the compound, how does the IC50 read?
**A.** 0.71 µM

**Q.** For `COc1cc([C@@H]2c3cc4c(cc3[C@@H](Nc3cc(OC)c(OC)c(OC)c3)[C@H]3COC(=O)[C@H]23)OCO4)cc(OC)c1O`, which IC50 is on record?
**A.** 0.63 µM

**Q.** For `COc1cc([C@@H]2c3cc4c(cc3[C@@H](Nc3cccc(O)c3)[C@H]3COC(=O)[C@H]23)OCO4)cc(OC)c1O`, which IC50 is on record?
**A.** 0.45 µM

**Q.** Which IC50 does the source give for `CCOC(=O)c1ccccc1N[C@@H]1c2cc3c(cc2[C@@H](c2cc(OC)c(O)c(OC)c2)[C@H]2C(=O)OC[C@@H]21)OCO3` here?
**A.** 1 µM

**Q.** Which IC50 does the source give for `COc1cc([C@@H]2c3cc4c(cc3[C@@H](Nc3ccc(C#N)cc3)[C@H]3COC(=O)[C@H]23)OCO4)cc(OC)c1O` here?
**A.** 0.64 µM

**Q.** Which IC50 does the source give for `COc1cc([C@@H]2c3cc4c(cc3[C@@H](Nc3cccc(CO)c3)[C@H]3COC(=O)[C@H]23)OCO4)cc(OC)c1O` here?
**A.** < 1 µM

Target: DNA topoisomerase II (Homo sapiens) (UniProt P11388+Q02880)
Assay: Inhibitory activity against human DNA topoisomerase II
Type: protein assay
Settings: not given

**Q.** With `COc1cc([C@@H]2c3cc4c(cc3[C@@H](Nc3ccc(Oc5ccccc5)cc3)[C@H]3COC(=O)[C@H]23)OCO4)cc(OC)c1O` as the compound, how does the ID50 read?
**A.** 25 µM

**Q.** For `COc1cc([C@@H]2c3cc4c(cc3[C@@H](Nc3cccc(C(C)=O)c3)[C@H]3COC(=O)[C@H]23)OCO4)cc(OC)c1O`, which ID50 is on record?
**A.** 50 µM

**Q.** With `COC(=O)c1cc(N[C@@H]2c3cc4c(cc3[C@@H](c3cc(OC)c(O)c(OC)c3)[C@H]3C(=O)OC[C@@H]32)OCO4)ccc1O` as the compound, how does the ID50 read?
**A.** 50 µM

**Q.** For `COc1cc([C@@H]2c3cc4c(cc3[C@@H](Nc3ccc5c(c3)OCCO5)[C@H]3COC(=O)[C@H]23)OCO4)cc(OC)c1O`, which ID50 is on record?
**A.** 10 µM

**Q.** For `COc1cc([C@@H]2c3cc4c(cc3[C@@H](Nc3ccc(F)cc3)[C@H]3COC(=O)[C@H]23)OCO4)cc(OC)c1O`, which ID50 is on record?
**A.** 5 µM

**Q.** Which ID50 does the source give for `COc1cc([C@@H]2c3cc4c(cc3[C@@H](Nc3cccc([N+](=O)[O-])c3)[C@H]3COC(=O)[C@H]23)OCO4)cc(OC)c1O` here?
**A.** 50 µM

**Q.** With `COc1cc([C@@H]2c3cc4c(cc3[C@@H](Oc3ccc(F)cc3)[C@H]3COC(=O)[C@H]23)OCO4)cc(OC)c1O` as the compound, how does the ID50 read?
**A.** > 100 µM

**Q.** With `CCOC(=O)c1ccc(N[C@@H]2c3cc4c(cc3[C@@H](c3cc(OC)c(O)c(OC)c3)[C@H]3C(=O)OC[C@@H]32)OCO4)cc1` as the compound, how does the ID50 read?
**A.** 5 µM

**Q.** Which ID50 does the source give for `COc1cc([C@@H]2c3cc4c(cc3[C@@H](Nc3ccccn3)[C@H]3COC(=O)[C@H]23)OCO4)cc(OC)c1O` here?
**A.** 50 µM

**Q.** For `COC(=O)c1ccc(N[C@@H]2c3cc4c(cc3[C@@H](c3cc(OC)c(O)c(OC)c3)[C@H]3C(=O)OC[C@@H]32)OCO4)cc1O`, which ID50 is on record?
**A.** 50 µM

**Q.** Which ID50 does the source give for `COc1cc([C@@H]2c3cc4c(cc3[C@@H](Nc3ccc([N+](=O)[O-])cc3)[C@H]3COC(=O)[C@H]23)OCO4)cc(OC)c1O` here?
**A.** 10 µM

**Q.** For `COc1cc([C@@H]2c3cc4c(cc3[C@@H](Nc3cc(C(F)(F)F)cc(C(F)(F)F)c3)[C@H]3COC(=O)[C@H]23)OCO4)cc(OC)c1O`, which ID50 is on record?
**A.** > 100 µM

**Q.** For `COc1cc([C@@H]2c3cc4c(cc3[C@@H](Nc3ccccc3)[C@H]3COC(=O)[C@H]23)OCO4)cc(OC)c1O`, which ID50 is on record?
**A.** 25 µM

**Q.** For `COc1cc([C@@H]2c3cc4c(cc3[C@@H](Nc3cc(OC)c(OC)c(OC)c3)[C@H]3COC(=O)[C@H]23)OCO4)cc(OC)c1O`, which ID50 is on record?
**A.** > 100 µM

**Q.** With `COc1cc([C@@H]2c3cc4c(cc3[C@@H](Nc3cccc(O)c3)[C@H]3COC(=O)[C@H]23)OCO4)cc(OC)c1O` as the compound, how does the ID50 read?
**A.** 25 µM

**Q.** With `CCOC(=O)c1ccccc1N[C@@H]1c2cc3c(cc2[C@@H](c2cc(OC)c(O)c(OC)c2)[C@H]2C(=O)OC[C@@H]21)OCO3` as the compound, how does the ID50 read?
**A.** > 100 µM

**Q.** With `COc1cc([C@@H]2c3cc4c(cc3[C@@H](Nc3ccc(C#N)cc3)[C@H]3COC(=O)[C@H]23)OCO4)cc(OC)c1O` as the compound, how does the ID50 read?
**A.** 10 µM

**Q.** Which ID50 does the source give for `COc1cc([C@@H]2c3cc4c(cc3[C@@H](Nc3cccc(CO)c3)[C@H]3COC(=O)[C@H]23)OCO4)cc(OC)c1O` here?
**A.** 25 µM
